Measured values from patent US20020169296A1, “Linked, sequence-specific DNA-binding molecules” (priority 2000, published 2002).
“And” between values parts separate entries of the source, which are not always exact repeats. Identical values can stand only once. Like-named read-outs stand apart in the source and are kept apart here.

Key:
[1] = system: satellite III chromatin; test: Restriction enzyme (HaeIII) cleavage within satellite III chromatin; type: biochemical, Drosophila; conditions: data not shown
Text: Satellite III repeats contain near the topoisomerase II cleavage site a HaeIII restriction sequence. […] We made a similar observation using P9 (data not shown).

[2] = system: Drosophila histone SAR probe (clustered/long AT-tracts); test: DNase I footprinting on SAR probe; type: binding
Method: Since satellite I is composed of exclusively A and T bases, it constitutes an ‘ideal’ binding substrate for oligopyrroles. But to obtain SAR-specific compounds, molecules are required that preferably bind its clustered, irregularly spaced AT-tracts. Binding studies were carried out with P9, P7 and P13 on the Drosophila histone SAR probe which contains the following clustered/long AT-tracts (W15N3W17N5W16N13W8NW6 where N is any base, see also FIG. 3D). […] The ratio of these two affinities is used (KappW9/KappSAR) as an empirical measure of SAR specificity. For all compounds tested thus far, this value (referred to as SAR preference factor) was around unity (Table 3).
(§1) Fragments were purified on low-melt agarose gels and then cloned into a modified pSP64 vector, cut by BamHI and BglII. End-labeling was carried out following digestion with HindIII and a fill-in reaction with Klenow DNA polymerase. The labeled plasmid was cut with PvuII and the target fragments purified from low-melting agarose gels. The 657 bp EcoRl/Hinf1 fragment of the Drosophila histone SAR was cloned into the SmaI site of the modified pSP64 plasmid. This SAR probe was end-labeled following digestion with EcoRl, then cut with ClaI and the resulting 347 bp fragment purified from low-melting agarose gels.
(§2) All reactions were performed in a total volume of 40 μl. A polyamide stock solution or buffer (for reference lanes) was added to an assay buffer containing 20 kcpm radiolabeled DNA, affording final concentrations of 10 mM Tris-HCl (pH 7.4), 10 mM KCl, 10 mM MgCl, 5 mM CaCl2, 0.5 mM EDTA, 0.5 mM EGTA, 1 mM DTT and 0.1% digitonine. The solutions were allowed to equilibrate for at least 2 h at room temperature. Footprinting reactions were initiated by the addition of 2 μl of a DNase stock solution (containing −100 pg DNase I in buffer) and allowed to proceed for 2 min at room temperature. The reactions were stopped by addition of 10 μl of a solution containing 1.25 M NaCl, 100 mM EDTA. Next, 5 μl of a 1% SDS solution was added, followed by 2 μl of a solution containing 1 μg poly(dA-dT), 1 μg salmon sperm DNA and 10 μg glycogen and the DNA was ethanol precipitated (20 min at −20° C.). The reactions were resuspended in 4 μl of 80% formamide loading buffer, denatured 10 min at 85° C., cooled on ice and electrophoresed on 8% polyacrylamide denaturing gels (5% cross-link, 8 M urea) at 30 W for 1 h. The gels were dried and exposed o/n at −70° C.

[3] = system: W9 probe (isolated 9 bp AT-tract); test: DNase I footprinting on W9 probe; type: binding
Text: To target AT-tracts, the principal component of satellite I, III and SARs), a pyrrole pentamer was synthesized by facile solid phase chemistry in which five pyrrole (Py) aromatic amino acid rings are linked covalently by amide bonds (Baird and Dervan, 1996). The resulting compound, termed P7 had the sequence Py-Py-Py-Py-Py-β-Dp (where β=β-alanine and Dp=dimethylaminopropylamide). This compound is expected to bind 7 successive A or T base pairs (Ws) according to the n+1 rule where n is the number of amides (Youngquist and Dervan, 1985). The DNA binding properties of P7 were assessed by DNAse I footprinting experiments using a synthetic probe containing isolated, repeated AT-tracts of 9 Ws (W9, FIG. 2A). By visual inspection, the apparent dissociation constant (Kapp) for P7 was estimated to be approximately 80 nM (Table 3).
were hybridized to obtain the W9 probe, oligomerized by ligation and digested with BamHl and BglII to obtain different tandem repeats. The following oligonucleotides were prepared identically:
as §1, §2

[4] = system: Drosophila satellite III chromatin (topoisomerase II cleavage); test: Topoisomerase II cleavage in satellite III of Kc nuclei in Xenopus egg extracts with VM26; type: biochemical; conditions: for concentration giving massive cleavage stimulation: P31 at 500 nM comparable to P9 at 62 nM (lowest tested)
[5] = system: sperm nuclei (condensation to chromatids); test: Chromosome condensation of sperm nuclei in mitotic Xenopus egg extracts; type: biochemical
Text: Mitotic Xenopus egg extracts convert added nuclei and sperm to chromatids in vitro. This chromosome condensation process requires topoisomerase II (Adachi et al., 1991), the protein complex condensin (Hirano T, 1997) and presumably other unidentified activities present in the mitotic extract. First, chromatin is remodeled and nuclei then proceed quite synchronously through a number of morphologically distinguishable steps (Hirano and Mitchison, 1991). Remodeling is morphological manifested by swelling of the nuclei which involves exchange of basic sperm-specific proteins for H2A/H2B and the incorporation of histone B4 (Dimitrov S, 1994).
Pyrrole drugs were added to the extract together with the sperm or after the remodeling step (at 10 minutes) and the extent of condensation was determined after 120 min. At this time point, the conversion of all sperm nuclei to clusters of individual chromatids is complete in the absence of drug (FIG. 8A, control). […] Addition of this compound at 125 to 250 nM (indicated) arrested this process at the so-called early ‘ruffle’ stage (FIG. 8A). These structures retain the swollen sperm shape, but they have peripheral blebs (ruffles) and a slightly heterogeneous interior. At this drug concentration, no chromatids are seen. If the concentration of Lex10 is raised to 500 nM, we observed an even earlier arrest as evidenced by the accumulation of swollen, remodeled sperm-shaped nuclei containing a homogeneous interior and smooth periphery. […] The monomer P7 was also tested but we observed no inhibition with the pyrrole pentamer up to the highest concentration (8 μM) tested. Condensation was inhibited at a ruffle stage with a P9 concentration of 2 μM (not shown).
In the experiment shown in FIG. 8B, Lex10 was added to the extract at a final concentration of 1 μM (several fold above the minimum inhibitory concentration) after which competitor oligonucleotides were added at different stages. Three different oligonucleotides of similar size were used: the SAR oligo contains two large clustered AT-tracts of the SAR probe (W17N5W15), the W9 oligo has a single AT tract of 9 base pairs and the GAGAA oligo harbors 5 tandem GAGAA repeats.
Topoisomerase II inhibition and chromosome assembly were as described previously (Girard et al., 1998, Strick and Laemmli, 1995). Affinity cleavage experiments was performed as described elsewhere (Turner et al., 1997).

[6] = system: GAGA factor (GAF) function; test: Feeding to developing Drosophila melanogaster of brown-dominant genotype; type: in vivo; conditions: fed to developing flies
[7] = system: CACAA repeats (Brown I probe); test: DNase I footprinting on CACAA repeats; type: binding
Text: A drawback of this binding model, as opposed to conventional 2:1 drug to DNA complexes, is that P31 is expected to bind degenerate GC and CG base pairs, albeit with different affinity. The consensus sequence can thus be defined as […], where S stands for a G or C and W for A or T. To evaluate binding of P31 to CACAA repeats, we used a second probe that contains two of these repeats as well as five tandem GAGAA repeats. […] Again, it is observed than this molecule binds as a 1:1 drug to DNA complex in an orientation as indicated by arrowheads (FIG. 5A). We propose that special structural features of AT-tracts and GAGAA repeats might favor 1:1 DNA to drug complexes (see Discussion).
All reactions were performed in a total volume of 40 μl. A polyamide stock solution or buffer (for reference lanes) was added to an assay buffer containing 20 kcpm radiolabeled DNA, affording final concentrations of 10 mM Tris-HCl (pH 7.4), 10 mM KCl, 10 mM MgCl, 5 mM CaCl2, 0.5 mM EDTA, 0.5 mM EGTA, 1 mM DTT and 0.1% digitonine. The solutions were allowed to equilibrate for at least 2 h at room temperature. Footprinting reactions were initiated by the addition of 2 μl of a DNase stock solution (containing −100 pg DNase I in buffer) and allowed to proceed for 2 min at room temperature. The reactions were stopped by addition of 10 μl of a solution containing 1.25 M NaCl, 100 mM EDTA. […]

[8] = target: two GAGAA repeats (GAF31 probe); test: DNase I footprinting on GAGAA repeats; conditions: read-out: apparent binding constant
Text: In the framework of a search for molecular tools to study PEV, polyamide that targets the abundant satellite V composed of GAGAA repeats (Lohe et al., 1993) was synthesised. Designing molecules that would bind to this repeat motif represented a challenge since with current knowledge, targeting of sequences containing 5′-GNG-3′ or 5′-GA-3′ with drugs composed of pyrrole and imidazole is difficult. However, successful targeting to sequences containing 5′-GTG-3′ was previously achieved using an Im-β-Im motif where β-alanine replaces the function of pyrrole (Turner et al., 1998). Since β-alanine, like pyrroles, is degenerate for A.T and T.A base pairs, we designed a compound based on these observations, to recognize a sequence composed of two tandem GAGAA repeats by systematic placement of β-alanine at the N-terminal neighbor of imidazole. The binding affinity and specificity of this compound, termed P31 (=Im-β-Im-Py-β-Im-β-Im-β-Dp), were evaluated by DNAse I footprinting. For this purpose, two different probes were examined, both containing GAGAA repeats. […] The apparent binding constant of P31 for this sequence was estimated at 0.25 nM. At higher concentrations, protection of two mismatch binding sites was observed. One of these sites contains an AAGTG motif (FIG. 5A).
GAF31 is composed of the oligonucleotides:
(§3) All reactions were performed in a total volume of 40 μl. […]

[9] = system: GAGA factor (GAF) binding site from the Ubx promoter (GAF31 probe); test: DNase I footprinting on Ubx GAF binding site
Text: Panel A: DNAse I footprinting experiment with P31 and affinity cleavage with P31E are shown on GAF31 and the Brown I probes. The GAF31 and Brown I probes contains a (AAGAG)2 motif and GAGA factor (GAF) binding site from the Ubx promoter (Biggin et al., 1988). […] The Brown I oligo (a tandem repeat) includes an (AAGAG)5 binding site and a degenerate P31 binding site (AACAC)2 as indicated. P31 concentrations used (nM) are indicated. […] Binding orientations of P31E on these probes are indicated by arrowheads on the brackets pointing towards the N-terminus of the molecule. The letter G refers the G nucleotide cleavage reaction. Panel B: DNAse I footprinting experiment with purified GAGA factor (GAF) on the GAF31 probe. Note that GAF binds both the (AAGAG)2 motif and the binding site from the Ubx promoter.
A footprint experiment was therefore carried out with this protein. The DNA probe (GAF31) used for this purpose contains besides the (AAGAG)2 motif (the target of P31) a typical promoter proximal GAF binding site derived from the Ubx gene (Biggin et al., 1988). This Ubx site contains the pentameric consensus sequence […] of GAF (Omichinski et al., 1997).
as §3

Row | Structure (SMILES) | restriction enzyme cleavage within satellite III [1] | Ratio (KappW9/KappSAR, SAR preference factor) [2] | Kd ([2]; apparent dissociation constant, SAR probe, read-out: Kdapp SAR) [nM] | SAR specificity factor after tagging with fluorescent label ([2]; value of the tagged derivative) | better affinity for W9 than P7 [3] [fold] | Kd ([3]; apparent dissociation constant, W9 probe, read-out: Kdapp W9) | concentration of maximal stimulation of topoisomerase II cleavage [4] | lower concentration for opening satellite III than P31 [4] | stimulation of topoisomerase II cleavage in satellite III [4] | concentration giving massive cleavage stimulation [4] [nM] | concentration inhibiting chromosome condensation (block at ruffle stage) ([5]; 120 min) [µM] | reversal of condensation inhibition by competitor oligonucleotide ([5]; P9 2 μM, 500 ng of SAR-, W9- or GAGAA-oligo) | effect on GAGA factor function in flies [6] | stimulation of topoisomerase II cleavage in satellite III ([4]; up to a concentration of 200 nM) | affinity for CACAA repeats relative to GAGAA repeats [7] | Kd [8] [nM] | binding to Ubx GAF binding site [9]
1 | CN(C)CCCNC(=O)CCNC(=O)c1cc(NC(=O)c2cc(NC(=O)c3cc(NC(=O)CCNC(=O)c4cc(NC(=O)c5cc(NC(=O)c6cccn6C)cn5C)cn4C)cn3C)cn2C)cn1C [Compound P9, PyPyPy-β-PyPyPy-β-Dp] | facilitated cleavage | 1.4 | 0.55 | 3 | 100 | ~0.75 nM and 0.75 nM | 500 nM and 500 to 1000 nM | roughly 10 fold | massively stimulated | 62 | 2 | did not rescue chromatid assembly | – | – | – | – | –
2 | CN(C)CCCNC(=O)CCNC(=O)c1nc(NC(=O)CCNC(=O)c2nc(NC(=O)CCNC(=O)c3cc(NC(=O)c4nc(NC(=O)CCNC(=O)c5nccn5C)cn4C)cn3C)cn2C)cn1C [Compound P31, Im-β-Im-Py-β-Im-β-Im-β-Dp] | – | – | – | – | – | – | – | – | – | 500 | – | – | interferes with the function of the GAGA factor (GAF) | no significant reinforcement of the pattern | approximately five fold lower affinity | 0.25 | does not bind
